Results on 8 molecules are retold here after article PMC10812941, “Selenium-Containing (Hetero)Aryl Hybrids as Potential Antileishmanial Drug Candidates: In Vitro Screening against L. amazonensis” (Biomedicines, 2024).

Series [1] deals with L. amazonensis promastigotes. Description: Anti-promastigote assay (resazurin viability). The following applies: for Selectivity Index (SI) CC50 J774 / IC50 promastigotes: J774A.1 vs promastigotes; for IC50: 48 h; for Selectivity Index (SI) CC50 NIH/3T3 / IC50 promastigotes: NIH/3T3 vs promastigotes; for SI (CC50 on murine peritoneal macrophages/IC50 on promastigotes): peritoneal macrophages vs promastigotes. Background: The colour change of resazurin is a common sign of viable cells or microbes.
Experimental: (§1) Parasites in the exponential growth phase were used for the in vitro anti-promastigote assay, while those in the stationary phase were used for the anti-amastigote assay. Intracellular amastigote forms were obtained by infecting murine peritoneal macrophages with promastigotes.
Cell viability was assessed using the resazurin (Sigma-Aldrich) assay. A solution of resazurin (Sigma-Aldrich, USA) at 0.2 mg·mL^−1 was added to each well, and after 4 h of incubation at 26 °C, the absorbances at 570 nm and 600 nm were acquired, and the viability calculation for all wells was performed based on the formula and instructions provided by the AlamarBlue® manufacturer’s website (Bio-Rad, Hercules, CA, USA) [41]. Cell viability was evaluated from the optical density and compared to untreated cells. […] The half-maximal inhibitory concentration (IC50) values for each compound were calculated using a nonlinear dose–response regression curve generated by Prism 5 (GraphPad Software, USA).

The nature of series [2]: in vitro. The settings on record: mouse.
Series [3] concerns L. amazonensis intracellular amastigotes. Description: Anti-amastigote assay in infected murine peritoneal macrophages. The following applies: for IC50: Leishmania amazonensis, Peritoneal macrophage, in Mus musculus, 24 h, read-out: IC50 L. amazonensis Amastigotes.
Experimental: as §1
Plates were incubated at 37 °C with 5% CO2 for 1 h to allow adhesion, which was confirmed by microscopy. […] Supernatants were removed after treatment, and cells were washed twice with PBS, fixed with Bouin’s solution (Sigma-Aldrich, USA), and stained with Giemsa (Sigma-Aldrich, USA) diluted 1:10 in distilled water. Coverslips were dehydrated through an acetone/xylene gradient (100%, 70%, 50%, 30%, and 100% each from Sigma-Aldrich) and mounted for microscopic visualization. The total number of intracellular amastigotes was counted in 200 cells per coverslip in three replicates using an optical microscope. The half-maximal inhibitory concentration (IC50) values were calculated for each compound using a nonlinear regression curve in GraphPad Prism 5.0 software (GraphPad Software, San Diego, CA, USA).
A short description of series [4]: in vitro. The following applies: mouse. The source holds these as a separate data set.
[5] abbreviates: Leishmania amazonensis, read-out: IC50 L. amazonensis Promastigotes, 48 h, resazurin.
Where [6] appears, read: read-out: IC50 L. amazonensis Promastigotes, resazurin.

Where two headings read alike, the source gives them in different places. Some results are limits rather than exact numbers.

For orientation: IC50 means the midpoint of a concentration-inhibition curve. Turning to `C[C@@H]1[C@H](O)[C@@H](C)/C=C/C=C/C=C/C=C/C=C/C=C/C=C/[C@H](O[C@@H]2O[C@H](C)[C@@H](O)[C@H](N)[C@@H]2O)C[C@@H]2O[C@](O)(C[C@@H](O)C[C@@H](O)[C@H](O)CC[C@@H](O)C[C@@H](O)CC(=O)O[C@H]1C)C[C@H](O)[C@H]2C(=O)O` [ANFB, amphotericin B, reference compound], in series [1], the “Selectivity Index (SI) CC50 J774 / IC50 promastigotes” value is on record as 2.91. For the same molecule, the IC50 in series [1] (setting [5]) was 9.41 ± 1.13 µM; in series [1] (setting [6]) it was 9.4 ± 1.13 µM; in series [3], 0.97 ± 1.14 µM. In series [1], the “Selectivity Index (SI) CC50 NIH/3T3 / IC50 promastigotes” value amounted to 2.05. Besides, in series [1], the “SI (CC50 on murine peritoneal macrophages/IC50 on promastigotes)” value amounted to 2.67. Further, the CC50 at 48 h worked out at 27.3 ± 0.92 µM in “in vitro [2]” (J774A.1 macrophage cells) and 19.3 ± 1.01 µM in the series “in vitro [4]” (NIH/3T3 fibroblast cells). For the same molecule, in series [3] (J774A.1 vs intracellular amastigotes), the “Selectivity Index (SI) CC50 J774 / IC50 amastigotes” value is reported as 28.19. In addition, in series [3] (NIH/3T3 vs intracellular amastigotes), the “Selectivity Index (SI) CC50 NIH/3T3 / IC50 amastigotes” value was 25.92.

Turning to `Oc1ccc2ccccc2c1[Se]c1ccccc1` [MRK-102], the IC50 in series [1] (setting [5]) was 15.2 ± 1.12 µM; in series [3], > 50 µM. The “SI (CC50 on murine peritoneal macrophages/IC50 on promastigotes)” value in series [1] turned out to be 13.20. The CC50 at 48 h in the series “in vitro [2]” and in “in vitro [4]” was > 200 µM each time.

Regarding `Cc1ccc(-c2nnc([Se]c3ccccc3)o2)cc1` [MRK-103], the IC50 is 15.5 ± 1.13 µM in series [1] (setting [5]) and > 50 µM in series [3]. Besides, in series [1], the “SI (CC50 on murine peritoneal macrophages/IC50 on promastigotes)” value was 12.92. Also, the CC50 at 48 h in “in vitro [2]” and in the series “in vitro [4]” was > 200 µM in each case.

Take `CC(C)(C)c1cc(O)cc(C(C)(C)C)c1[Se]C#N` [MRK-105]: the “Selectivity Index (SI) CC50 J774 / IC50 promastigotes” value in series [1] came out at 4.94. Also, the IC50 was 15.5 µM in series [1] (setting [5]), 12.2 ± 1.12 µM in series [1] (setting [6]) and > 50 µM in series [3]. In addition, in series [1], the “Selectivity Index (SI) CC50 NIH/3T3 / IC50 promastigotes” value is given as 7.22. For the same molecule, the “SI (CC50 on murine peritoneal macrophages/IC50 on promastigotes)” value in series [1] is listed as 12.92; in series [1] (listed as 105), 16.43.

In the case of `COc1ccccc1[Se]c1c(-c2ccccc2)nc2cc(C)ccn12` [MRK-107], in series [1], the “Selectivity Index (SI) CC50 J774 / IC50 promastigotes” value is 7.31, the “Selectivity Index (SI) CC50 NIH/3T3 / IC50 promastigotes” value is on record as 7.31 and the “SI (CC50 on murine peritoneal macrophages/IC50 on promastigotes)” value worked out at 7.31. The IC50 in series [1] (setting [5]) stood at 27.4 ± 1.24 µM. For the same molecule, in the series “in vitro [2]”, the CC50 at 48 h is > 200 µM. In series [3], the “Selectivity Index (SI) CC50 J774 / IC50 amastigotes” value was 10.92, the “Selectivity Index (SI) CC50 NIH/3T3 / IC50 amastigotes” value was determined as 10.92 and the IC50 stood at 18.3 ± 1.5 µM. Moreover, the CC50 at 48 h in “in vitro [4]” was > 200 µM.

Turning to `N#C[Se]Cc1cc(=O)oc2cc(O)ccc12` [MRK-108], the IC50 in series [1] (setting [5]) is 4.23 ± 2 µM; in series [3], > 50 µM. The “SI (CC50 on murine peritoneal macrophages/IC50 on promastigotes)” value is given as > 47.31 in series [1] and 47.31 in series [1] (listed as 108). The CC50 at 48 h in the series “in vitro [2]” and in “in vitro [4]” was > 200 µM each time.

For the molecule `Cc1cn2c([Se]c3ccccc3)c(-c3ccccc3)nc2s1` [MRK-111], the IC50 in series [1] (setting [5]) was 17.6 ± 1.18 µM; in series [3], > 50 µM. Besides, in series [1], the “SI (CC50 on murine peritoneal macrophages/IC50 on promastigotes)” value was determined as 11.40. Further, the CC50 at 48 h in the series “in vitro [2]” and in the series “in vitro [4]” was > 200 µM each time.

As for `Cc1ccn2c([Se]c3ccccc3)c(-c3ccccc3)nc2c1` [MRK-113], in series [1], the “Selectivity Index (SI) CC50 J774 / IC50 promastigotes” value is 4.88, the “Selectivity Index (SI) CC50 NIH/3T3 / IC50 promastigotes” value is recorded as 4.88 and the “SI (CC50 on murine peritoneal macrophages/IC50 on promastigotes)” value amounted to 4.88. Also, in series [1] (setting [5]), the IC50 amounted to 41 ± 1.31 µM. The CC50 at 48 h in the series “in vitro [2]” was > 200 µM. In series [3], the “Selectivity Index (SI) CC50 J774 / IC50 amastigotes” value turned out to be 12.55, the “Selectivity Index (SI) CC50 NIH/3T3 / IC50 amastigotes” value came out at 12.55 and the IC50 was found to be 15.9 ± 1.69 µM. Besides, the CC50 at 48 h in “in vitro [4]” was > 200 µM.
